Experimental data as given in patent US8889667B2 (Agios Pharmaceuticals, Inc, priority 2010, dated 2014).

Each compound was assayed against PKM2 (Homo sapiens, UniProt P14618) (assay: PKM2 Assay (activation, LDH-coupled, absorbance at 340 nm)). Conditions: Table 4.
Assay type: biochemical
Experimental: • PKM2 stock enzyme solution was diluted in Reaction Buffer • 2 μL of compound was added into each well first, and then 180 μL of the Reaction Mix was added. • Reaction mixture with compound (without ADP) was incubated for 30 minutes at 4° C. • Plates were re-equilibrated to room temperature prior to adding 20 μL ADP to initiate the reaction. • Reaction progress was measured as changes in absorbance at 340 nm wavelength at room temperature (25° C.) Reaction Mix: PKM2 (50 ng/well), ADP (0.7 mM), PEP (0.15 mM), NADH (180 μM), LDH (2 units) in Reaction Buffer Reaction Buffer: 100 mM KCl, 50 mM Tris pH 7.5, 5 mM MgCl2, 1 mM DTT, 0.03% BSA.
Representative compounds of the invention were tested for their ability to activate PKM2 using the above assay. For simplicity, the activation activity of these compounds is represented as an AC50 in Tables 4 and 5 and throughout the application. […] “B” refers to an activator of PKM2 with an EC50 between 100 nM and 500 nM. “C” refers to an activator of PKM2 with an EC50 between 500 nM and 1000 nM. “D” refers to an activator of PKM2 with an EC50 between 1 μM and 20 μM. “E” refers a compound whose activation of PKM2 was not measurable. “N/C” refers to AC50 data not available.

Chain of PKM2 (P14618 whole entry): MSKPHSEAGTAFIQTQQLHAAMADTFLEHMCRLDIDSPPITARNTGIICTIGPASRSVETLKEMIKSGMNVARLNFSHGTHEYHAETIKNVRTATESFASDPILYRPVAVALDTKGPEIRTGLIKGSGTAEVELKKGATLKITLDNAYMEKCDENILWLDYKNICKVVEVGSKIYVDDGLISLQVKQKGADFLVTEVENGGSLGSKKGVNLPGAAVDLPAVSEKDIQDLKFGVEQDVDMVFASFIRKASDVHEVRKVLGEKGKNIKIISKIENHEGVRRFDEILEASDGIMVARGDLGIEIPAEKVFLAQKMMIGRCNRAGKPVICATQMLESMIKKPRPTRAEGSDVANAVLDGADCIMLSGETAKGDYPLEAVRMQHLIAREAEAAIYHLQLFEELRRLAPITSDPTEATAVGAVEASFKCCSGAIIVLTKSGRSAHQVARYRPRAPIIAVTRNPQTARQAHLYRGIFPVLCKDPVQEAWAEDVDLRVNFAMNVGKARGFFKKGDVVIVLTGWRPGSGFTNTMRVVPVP

| Compound | AC50 [nM] |
| --- | --- |
| C[C@H]1CN(C(=O)c2ccc(NS(=O)(=O)c3cccc4cccnc34)cc2)CCN1C(=O)c1ccccn1 [Compound 100] | 100 to 500 |
| CC(C)COC(=O)N1[C@H](C)CN(C(=O)c2ccc(NS(=O)(=O)c3cccc4cccnc34)cc2)C[C@@H]1C [Compound 105, (2S,6R)-isobutyl-2,6-dimethyl-4-(4-(quinoline-8-sulfonamido)benzoyl)piperazine-1-carboxylate] | 100 to 500 |
| CC(C)OC(=O)N1[C@H](C)CN(C(=O)c2ccc(NS(=O)(=O)c3cccc4cccnc34)cc2)C[C@@H]1C [Compound 106, (2S,6R)-isopropyl 2,6-dimethyl-4-(4-(quinoline-8-sulfonamido)benzoyl)piperazine-1-carboxylate] | 100 to 500 |
| CCOC(=O)N1CCN(C(=O)c2ccc(NS(=O)(=O)c3cccc4cccnc34)cc2)[C@@H](C)C1 [Compound 107, (S)-Ethyl 3-methyl-4-(4-(quinoline-8-sulfonamido)benzoyl)piperazine-1-carboxylate] | 500 to 1000 |
| C[C@@H]1CN(CC2CC2)CCN1C(=O)c1ccc(NS(=O)(=O)c2cccc3cccnc23)cc1 [Compound 113, (R)—N-(4-(4-(cyclopropylmethyl)-2-methylpiperazine-1-carbonyl)phenyl)quinoline-8-sulfonamide] | < 100 |
| C[C@@H]1CN(CC2CCCC2)CCN1C(=O)c1ccc(NS(=O)(=O)c2cccc3cccnc23)cc1 [Compound 114, (R)—N-(4-(4-(cyclopentylmethyl)-2-methylpiperazine-1-carbonyl)phenyl)quinoline-8-sulfonamide] | < 100 |
| C[C@@H]1CN(CC2CCOC2)CCN1C(=O)c1ccc(NS(=O)(=O)c2cccc3cccnc23)cc1 (stereo partly drawn) [Compound 115, N-(4-((2R)-2-methyl-4-((tetrahydrofuran-3-yl)methyl)piperazine-1-carbonyl)phenyl)quinoline-8-sulfonamide] | 100 to 500 |
| CCOC(=O)N1[C@H](C)CN(C(=O)c2ccc(NS(=O)(=O)c3cccc4cccnc34)cc2)C[C@@H]1C [Compound 117, (2S,6R)-ethyl 2,6-dimethyl-4-(4-(quinoline-8-sulfonamido)benzoyl)piperazine-1-carboxylate] | > 20000 |
| C[C@@H]1CN(Cc2cc(F)c(F)cc2F)CCN1C(=O)c1ccc(NS(=O)(=O)c2cccc3cccnc23)cc1 [Compound 120, (R)—N-(4-(2-methyl-4-(2,4,5-trifluorobenzyl)piperazine-1-carbonyl)phenyl)quinoline-8-sulfonamide] | < 100 |
| C[C@@H]1CN(C(=O)OCCC2CCCCC2)CCN1C(=O)c1ccc(NS(=O)(=O)c2cccc3cccnc23)cc1 [Compound 121, (R)-2-Cyclohexylethyl 3-methyl-4-(4-(quinoline-8-sulfonamido)benzoyl)piperazine-1-carboxylate] | 100 to 500 |
| C[C@@H]1CN(C(=O)OCCC2CCCC2)CCN1C(=O)c1ccc(NS(=O)(=O)c2cccc3cccnc23)cc1 [Compound 122, (R)-2-Cyclopentylethyl-3-methyl-4-(4-(quinoline-8-sulfonamido)benzoyl)piperazine-1-carboxylate] | < 100 |
| C[C@@H]1CN(C(=O)OC2CCOCC2)CCN1C(=O)c1ccc(NS(=O)(=O)c2cccc3cccnc23)cc1 [Compound 124, (R)-Tetrahydro-2H-pyran-4-yl-3-methyl-4-(4-(quinoline-8-sulfonamido)benzoyl)piperazine-1-carboxylate] | 100 to 500 |

The remaining lines, values ahead:

| AC50 [nM] | Compound |
| --- | --- |
| 1000 to 20000 | CC1CN(C(=O)c2ccccn2)CC(C)N1C(=O)c1ccc(NS(=O)(=O)c2cccc3cccnc23)cc1 (racemic) [Compound 116] |
| < 100 | C[C@H]1CN(C[C@H]2CCCO2)CCN1C(=O)c1ccc(NS(=O)(=O)c2cccc3cccnc23)cc1 (stereo in doubt) [Compound 211, N-(4-((2S)-2R-methyl-4-((tetrahydrofuran-2-yl)methyl)piperazine-1-carbonyl)phenyl)quinoline-8-sulfonamide] |
| 100 to 500 | C[C@H]1CN(C(=O)c2ccccn2)CCN1C(=O)c1ccc(NS(=O)(=O)c2cccc3cccnc23)cc1 [Compound 101] |
| 100 to 500 | C[C@@H]1CN(C(=O)c2ccc(NS(=O)(=O)c3cccc4cccnc34)cc2)CCN1C(=O)c1ccccn1 [Compound 102] |
| 100 to 500 | C[C@@H]1CN(C(=O)c2ccccn2)CCN1C(=O)c1ccc(NS(=O)(=O)c2cccc3cccnc23)cc1 [Compound 103] |
| < 100 | CC(C)OC(=O)N1CCN(C(=O)c2ccc(NS(=O)(=O)c3cccc4cccnc34)cc2)[C@@H](C)C1 [Compound 108, (S)-isopropyl 3-methyl-4-(4-(quinoline-8-sulfonamido)benzoyl)piperazine-1-carboxylate] |
| 100 to 500 | CCOC(=O)N1CCN(C(=O)c2ccc(NS(=O)(=O)c3cccc4cccnc34)cc2)[C@H](C)C1 [Compound 109, (R)-Ethyl 3-methyl-4-(4-(quinoline-8-sulfonamido)benzoyl)piperazine-1-carboxylate] |
| < 100 | CC(C)OC(=O)N1CCN(C(=O)c2ccc(NS(=O)(=O)c3cccc4cccnc34)cc2)[C@H](C)C1 [Compound 110, (R)-Isopropyl 3-methyl-4-(4-(quinoline-8-sulfonamido)benzoyl)piperazine-1-carboxylate] |
| < 100 | C[C@H]1CN(C(=O)OCC2CC2)CCN1C(=O)c1ccc(NS(=O)(=O)c2cccc3cccnc23)cc1 [Compound 111, (S)-Cyclopropylmethyl3-methyl-4-(4-(quinoline-8-sulfonamido)benzoyl)piperazine-1-carboxylate] |
| < 100 | C[C@@H]1CN(C(=O)OCC2CC2)CCN1C(=O)c1ccc(NS(=O)(=O)c2cccc3cccnc23)cc1 [Compound 112, (R)-Cyclopropylmethyl 3-methyl-4-(4-(quinoline-8-sulfonamido)benzoyl)piperazine-1-carboxylate] |
| < 100 | C[C@@H]1CN(Cc2ccc(F)c(F)c2F)CCN1C(=O)c1ccc(NS(=O)(=O)c2cccc3cccnc23)cc1 [Compound 118, (R)—N-(4-(2-methyl-4-(2,3,4-trifluorobenzyl)piperazine-1-carbonyl)phenyl)quinoline-8-sulfonamide] |
| < 100 | C[C@@H]1CN(Cc2cc(F)cc(F)c2)CCN1C(=O)c1ccc(NS(=O)(=O)c2cccc3cccnc23)cc1 [Compound 119, (R)—N-(4-(4-(3,5-difluorobenzyl)-2-methylpiperazine-1-carbonyl)phenyl)quinoline-8-sulfonamide] |
| < 100 | C[C@@H]1CN(C(=O)OC2CCCCC2)CCN1C(=O)c1ccc(NS(=O)(=O)c2cccc3cccnc23)cc1 [Compound 123, (R)-Cyclohexyl 3-methyl-4-(4-(quinoline-8-sulfonamido)benzoyl)piperazine-1-carboxylate] |
| < 100 | C[C@@H]1CN(Cc2ccc(Cl)c(F)c2)CCN1C(=O)c1ccc(NS(=O)(=O)c2cccc3cccnc23)cc1 [Compound 125, (R)—N-(4-(4-(4-chloro-3-fluorobenzyl)-2-methylpiperazine-1-carbonyl)phenyl)quinoline-8-sulfonamide] |
| 100 to 500 | C[C@@H]1CN(C(=O)O[C@@H]2CCOC2)CCN1C(=O)c1ccc(NS(=O)(=O)c2cccc3cccnc23)cc1 [Compound 126, (R)—((R)-tetrahydrofuran-3-yl)-3-methyl-4-(4-(quinoline-8-sulfonamido)benzoyl)piperazine-1-carboxylate] |
